Assay results: patent US11718618B2, “Substituted pyrido[2,1-a]isoquinolines as VMAT2 inhibitors” (priority 2021, dated 2023)

Assays:
human VMAT2 = human VMAT2 (Homo sapiens (Human), UniProt Q05940); experiment: VMAT2 radioligand binding, 3H-dihydrotetrabenazine competition on human platelet homogenate; conditions: 10 nM 3H-dihydrotetrabenazine, human platelet homogenate, 25° C., 90 minutes; read-out: VMAT2 Ki
Summary of the method: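 Ki from scintillation counting of filter-bound ³H-dihydrotetrabenazine (10 nM) after 90 min, 25 °C incubation with twelve concentrations of compound. Membranes: human platelet homogenate, 30 μg protein per well; buffer DPBS, 1 mM EDTA, pH 7.4.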

[1] = Stability of compounds in human liver microsomes; format: in vitro ADME; conditions: for CLint scaled at 0.5 μM / half-life at 0.5 μM: both sexes, pH 7.4; for CLint scaled at 0.5 μM: liver microsomes, calculated from HLM half-life, read-out: HLM Scaled Intrinsic Clearance; for CLint scaled at 0.5 μM / Predicted Max. Bioavailability (% F) / HLM Predicted Systemic Clearance: human; for half-life at 0.5 μM: 0.5 μM compound, 0.5 mg/mL human liver microsomes, 37° C., maxed at 420 minutes, read-out: HLM Elimination half-life (t1/2, min); for Predicted Max. Bioavailability (% F): predicted from HLM data; for HLM Predicted Systemic Clearance: scaled from HLM half-life (Obach method)
Summary of the method: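 Compound at 0.5 μM incubated at 37 °C with pooled mixed-gender human liver microsomes (0.5 mg/mL protein) and an NADPH-generating system in pH 7.4 phosphate buffer, sampled 0–60 min. Parent depletion tracked by LC-MS/MS; t1/2 derived from the slope by non-linear regression, with predicted extraction ratio and maximum bioavailability also calculated.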

Chain of human VMAT2 (Q05940 whole entry): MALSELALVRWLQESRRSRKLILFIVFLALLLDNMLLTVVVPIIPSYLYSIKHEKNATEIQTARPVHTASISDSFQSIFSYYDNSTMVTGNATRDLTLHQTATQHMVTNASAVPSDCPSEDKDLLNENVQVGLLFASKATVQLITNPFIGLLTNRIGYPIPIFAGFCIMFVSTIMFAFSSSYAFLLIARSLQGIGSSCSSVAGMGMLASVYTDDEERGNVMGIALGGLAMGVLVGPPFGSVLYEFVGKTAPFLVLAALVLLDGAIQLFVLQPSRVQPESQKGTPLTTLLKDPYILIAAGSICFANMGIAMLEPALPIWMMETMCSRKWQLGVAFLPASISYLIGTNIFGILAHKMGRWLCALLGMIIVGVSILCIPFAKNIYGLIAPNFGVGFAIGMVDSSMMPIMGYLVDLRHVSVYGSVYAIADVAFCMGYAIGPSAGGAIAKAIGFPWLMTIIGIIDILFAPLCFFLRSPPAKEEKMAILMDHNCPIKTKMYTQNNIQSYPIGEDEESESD

## COc1cc2c(cc1OCC(O)CC(F)(F)F)CCN1C[C@@H](CC(C)(C)C)[C@H](O)C[C@H]21 (stereo partly drawn) [Compound 4-62, (2R,3R,11bR)-3-(2,2-dimethylpropyl)-10-methoxy-9-(4,4,4-trifluoro-2-hydroxybutoxy)-1H,2H,3H,4H,6H,7H,11bH-pyrido[2,1-a]isoquinolin-2-ol]
Human VMAT2
  Ki: 3.7 nM
[1]
  CLint scaled at 0.5 μM: ≤ 2.97 mL/min/kg
  half-life at 0.5 μM: ≥ 420 min
  Predicted Max. Bioavailability (% F): ≥87 % F
  HLM Predicted Systemic Clearance: ≤2.59 mL/min/kg

## COc1cc2c(cc1OCc1ccc(F)cc1)CCN1C[C@@H](CC(C)(C)C)[C@H](O)C[C@H]21 [Compound 4-63, (2R,3R,11bR)-3-(2,2-dimethylpropyl)-9-[(4-fluorophenyl)methoxy]-10-methoxy-1H,2H,3H,4H,6H,7H,11bH-pyrido[2,1-a]isoquinolin-2-ol]
Human VMAT2
  Ki: 4.2 nM
[1]
  CLint scaled at 0.5 μM: 42.3 mL/min/kg
  half-life at 0.5 μM: 29 min
  Predicted Max. Bioavailability (% F): 32 % F
  HLM Predicted Systemic Clearance: 13.58 mL/min/kg

## COc1cc2c(cc1OCc1cccc(F)c1)CCN1C[C@@H](CC(C)(C)C)[C@H](O)C[C@H]21 [Compound 4-64, (2R,3R,11bR)-3-(2,2-dimethylpropyl)-9-[(3-fluorophenyl)methoxy]-10-methoxy-1H,2H,3H,4H,6H,7H,11bH-pyrido[2,1-a]isoquinolin-2-ol]
Human VMAT2
  Ki: 5.5 nM
[1]
  CLint scaled at 0.5 μM: 38 mL/min/kg
  half-life at 0.5 μM: 33 min
  Predicted Max. Bioavailability (% F): 35 % F
  HLM Predicted Systemic Clearance: 13.1 mL/min/kg

## COc1cc2c(cc1OCC(F)(F)Cl)CCN1C[C@@H](CC(C)(C)C)[C@H](O)C[C@H]21 [Compound 4-65, (2R,3R,11bR)-9-(2-chloro-2,2-difluoroethoxy)-3-(2,2-dimethylpropyl)-10-methoxy-1H,2H,3H,4H,6H,7H,11bH-pyrido[2,1-a]isoquinolin-2-ol]
Human VMAT2
  Ki: 8.7 nM
[1]
  CLint scaled at 0.5 μM: 5.5 mL/min/kg
  half-life at 0.5 μM: 227 min
  Predicted Max. Bioavailability (% F): 78 % F
  HLM Predicted Systemic Clearance: 4.31 mL/min/kg

## COc1cc2c(cc1OCC(C)(O)C(F)(F)F)CCN1C[C@@H](CC(C)(C)C)[C@H](O)C[C@H]21 (stereo partly drawn) [Compound 4-66, (2R,3R,11bR)-3-(2,2-dimethylpropyl)-10-methoxy-9-(3,3,3-trifluoro-2-hydroxy-2-methylpropoxy)-1H,2H,3H,4H,6H,7H,11bH-pyrido[2,1-a]isoquinolin-2-ol]
Human VMAT2
  Ki: 10 nM
[1]
  CLint scaled at 0.5 μM: ≤ 2.97 mL/min/kg
  half-life at 0.5 μM: ≥ 420 min
  Predicted Max. Bioavailability (% F): ≥87 % F
  HLM Predicted Systemic Clearance: ≤2.59 mL/min/kg

## COc1cc2c(cc1OCC13CC(C(F)(F)F)(C1)C3)CCN1C[C@@H](CC(C)(C)C)[C@H](O)C[C@H]21 [Compound 4-67, (2R,3R,11bR)-3-(2,2-dimethylpropyl)-10-methoxy-9-{[3-(trifluoromethyl)bi-cyclo[1.1.1]pentan-1-yl]methoxy}-1H,2H,3H,4H,6H,7H,11bH-pyrido[2,1-a]isoquinolin-2-ol]
Human VMAT2
  Ki: 14 nM
[1]
  CLint scaled at 0.5 μM: ≤ 2.97 mL/min/kg
  half-life at 0.5 μM: ≥ 420 min
  Predicted Max. Bioavailability (% F): ≥87 % F
  HLM Predicted Systemic Clearance: ≤2.59 mL/min/kg

## CC[C@H](O)COc1cc2c(cc1OC)[C@H]1C[C@@H](O)[C@H](CC(C)(C)C)CN1CC2 [Compound 4-68, (2R,3R,11bR)-3-(2,2-dimethylpropyl)-9-[(2S)-2-hydroxybutoxy]-10-methoxy-1H,2H,3H,4H,6H,7H,11bH-pyrido[2,1-a]isoquinolin-2-ol]
Human VMAT2
  Ki: 29 nM
[1]
  CLint scaled at 0.5 μM: 6.37 mL/min/kg
  half-life at 0.5 μM: 196 min
  Predicted Max. Bioavailability (% F): 76 % F
  HLM Predicted Systemic Clearance: 4.83 mL/min/kg

## COc1cc2c(cc1OCc1ccon1)CCN1C[C@@H](CC(C)(C)C)[C@H](O)C[C@H]21 [Compound 4-69, (2R,3R,11bR)-3-(2,2-dimethylpropyl)-10-methoxy-9-(1,2-oxazol-3-ylmethoxy)-1H,2H,3H,4H,6H,7H,11bH-pyrido[2,1-a]isoquinolin-2-ol]
Human VMAT2
  Ki: 32 nM
[1]
  CLint scaled at 0.5 μM: 15.5 mL/min/kg
  half-life at 0.5 μM: 80 min
  Predicted Max. Bioavailability (% F): 56 % F
  HLM Predicted Systemic Clearance: 8.74 mL/min/kg

## COc1cc2c(cc1OCCOCC#N)CCN1C[C@@H](CC(C)(C)C)[C@H](O)C[C@H]21 [Compound 4-70, 2-(2-{[(2R,3R,11bR)-3-(2,2-dimethylpropyl)-2-hydroxy-10-methoxy-1H,2H,3H,4H,6H,7H,11bH-pyrido[2,1-a]isoquinolin-9-yl]oxy}ethoxy)acetonitrile]
Human VMAT2
  Ki: 36 nM
[1]
  CLint scaled at 0.5 μM: 11.4 mL/min/kg
  half-life at 0.5 μM: 110 min
  Predicted Max. Bioavailability (% F): 64 % F
  HLM Predicted Systemic Clearance: 7.25 mL/min/kg

## COc1cc2c(cc1OCCN1CCC(F)(F)C1)CCN1C[C@@H](CC(C)(C)C)[C@H](O)C[C@H]21 [Compound 4-71, (2R,3R,11bR)-9-[2-(3,3-difluoropyrrolidin-1-yl)ethoxy]-3-(2,2-dimethylpropyl)-10-methoxy-1H,2H,3H,4H,6H,7H,11bH-pyrido[2,1-a]isoquinolin-2-ol]
Human VMAT2
  Ki: 37 nM
[1]
  CLint scaled at 0.5 μM: 38.4 mL/min/kg
  half-life at 0.5 μM: 33 min
  Predicted Max. Bioavailability (% F): 34 % F
  HLM Predicted Systemic Clearance: 13.15 mL/min/kg

## COc1cc2c(cc1OCC1(F)COCCOC1)CCN1C[C@@H](CC(C)(C)C)[C@H](O)C[C@H]21 [Compound 4-72, (2R,3R,11bR)-3-(2,2-dimethylpropyl)-9-[(6-fluoro-1,4-dioxepan-6-yl)methoxy]-10-methoxy-1H,2H,3H,4H,6H,7H,11bH-pyrido[2,1-a]isoquinolin-2-ol]
Human VMAT2
  Ki: 51 nM
[1]
  CLint scaled at 0.5 μM: 15.6 mL/min/kg
  half-life at 0.5 μM: 80 min
  Predicted Max. Bioavailability (% F): 56 % F
  HLM Predicted Systemic Clearance: 8.77 mL/min/kg

## COc1cc2c(cc1OCC1CCN(C#N)CC1)CCN1C[C@@H](CC(C)(C)C)[C@H](O)C[C@H]21 [Compound 4-73]
Human VMAT2
  Ki: 51 nM
[1]
  CLint scaled at 0.5 μM: 10.5 mL/min/kg
  half-life at 0.5 μM: 119 min
  Predicted Max. Bioavailability (% F): 66 % F
  HLM Predicted Systemic Clearance: 6.88 mL/min/kg

## COc1cc2c(cc1OCCc1ccc(C(F)(F)F)cc1)CCN1C[C@@H](CC(C)(C)C)[C@H](O)C[C@H]21 [Compound 4-74, (2R,3R,11bR)-3-(2,2-dimethylpropyl)-10-methoxy-9-{2-[4-(trifluoromethyl)phenyl]ethoxy}-1H,2H,3H,4H,6H,7H,11bH-pyrido[2,1-a]isoquinolin-2-ol]
Human VMAT2
  Ki: 65 nM
[1]
  CLint scaled at 0.5 μM: 34.6 mL/min/kg
  half-life at 0.5 μM: 36 min
  Predicted Max. Bioavailability (% F): 37 % F
  HLM Predicted Systemic Clearance: 12.68 mL/min/kg

## COc1cc2c(cc1OCc1cocn1)CCN1C[C@@H](CC(C)(C)C)[C@H](O)C[C@H]21 [Compound 4-75, (2R,3R,11bR)-3-(2,2-dimethylpropyl)-10-methoxy-9-(1,3-oxazol-4-ylmethoxy)-1H,2H,3H,4H,6H,7H,11bH-pyrido[2,1-a]isoquinolin-2-ol]
Human VMAT2
  Ki: 76 nM
[1]
  CLint scaled at 0.5 μM: 11.9 mL/min/kg
  half-life at 0.5 μM: 104 min
  Predicted Max. Bioavailability (% F): 63 % F
  HLM Predicted Systemic Clearance: 7.48 mL/min/kg

## COc1cc2c(cc1OCC1(O)CCC(F)(F)CC1)CCN1C[C@@H](CC(C)(C)C)[C@H](O)C[C@H]21 [Compound 4-76, (2R,3R,11bR)-9-[(4,4-difluoro-1-hydroxycyclohexyl)methoxy]-3-(2,2-dimethylpropyl)-10-methoxy-1H,2H,3H,4H,6H,7H,11bH-pyrido[2,1-a]isoquinolin-2-ol]
Human VMAT2
  Ki: 82 nM
[1]
  CLint scaled at 0.5 μM: ≤ 2.97 mL/min/kg
  half-life at 0.5 μM: ≥ 420 min
  Predicted Max. Bioavailability (% F): ≥87 % F
  HLM Predicted Systemic Clearance: ≤2.59 mL/min/kg

## COc1cc2c(cc1OCc1cccc(C#N)n1)CCN1C[C@@H](CC(C)(C)C)[C@H](O)C[C@H]21 [Compound 4-77, 6-({[(2R,3R,11bR)-3-(2,2-dimethylpropyl)-2-hydroxy-10-methoxy-1H,2H,3H,4H,6H,7H,11bH-pyrido[2,1-a]isoquinolin-9-yl]oxy}methyl)pyridine-2-carbonitrile]
Human VMAT2
  Ki: 85 nM
[1]
  CLint scaled at 0.5 μM: 8.01 mL/min/kg
  half-life at 0.5 μM: 156 min
  Predicted Max. Bioavailability (% F): 71 % F
  HLM Predicted Systemic Clearance: 5.72 mL/min/kg

## COc1cc2c(cc1OCC1CC(O)(C(F)(F)F)C1)CCN1C[C@@H](CC(C)(C)C)[C@H](O)C[C@H]21 (stereo partly drawn) [Compound 4-78, (2R,3R,11bR)-3-(2,2-dimethylpropyl)-9-{[3-hydroxy-3-(trifluoro-methyl)cyclobutyl]methoxy}-10-methoxy-1H,2H,3H,4H,6H,7H,11bH-pyrido[2,1-a]isoquinolin-2-ol]
Human VMAT2
  Ki: 92 nM
[1]
  CLint scaled at 0.5 μM: 6.41 mL/min/kg
  half-life at 0.5 μM: 195 min
  Predicted Max. Bioavailability (% F): 76 % F
  HLM Predicted Systemic Clearance: 4.86 mL/min/kg

## COc1cc2c(cc1OCC(O)COCC(F)(F)F)CCN1C[C@@H](CC(C)(C)C)[C@H](O)C[C@H]21 (some centres unmarked) [Compound 4-79]
Human VMAT2
  Ki: 99 nM
[1]
  CLint scaled at 0.5 μM: 5.88 mL/min/kg
  half-life at 0.5 μM: 212 min
  Predicted Max. Bioavailability (% F): 77 % F
  HLM Predicted Systemic Clearance: 4.54 mL/min/kg

## COc1cc2c(cc1OCC1CC1)CCN1C[C@@H](CC(C)(C)C)[C@H](O)C[C@H]21 [Compound 4-88, (2R,3R,11bR)-9-(cyclopropylmethoxy)-3-(2,2-dimethylpropyl)-10-methoxy-1H,2H,3H,4H,6H,7H,11bH-pyrido[2,1-a]isoquinolin-2-ol]
Human VMAT2
  Ki: 0.68 nM
[1]
  CLint scaled at 0.5 μM: 28.1 mL/min/kg
  half-life at 0.5 μM: 44 min
  Predicted Max. Bioavailability (% F): 42 % F
  HLM Predicted Systemic Clearance: 11.68 mL/min/kg
